According to patent US7122523B2, “Methods for inhibiting tumor cell proliferation” (University of Southern California, priority 2001, dated 2006):
Entries after “also recorded” stand apart in the source; their conditions may differ.

Experiment: Test of effectiveness of AII fragments (test not specified)
Settings: repeated tests

Tyr-Ile-His-Pro-Phe (YIHPF) [AII(4-8)]
effectiveness as active agent: not to be effective; also recorded: ineffective
